Measured values taken from patent EP0374886A2, “Antiretroviral furan ketones” (MERRELL DOW PHARMACEUTICALS INC., priority 1988, dated 1990).
In brackets after ≈: the same amount, converted by molar mass.

What was measured:
[1] = tested on: Moloney murine leukemia virus (MoLV); assay: in vitro XC plaque assay (inhibition of virus plaque growth in mouse SC-1 cells / rat XC cells); assay type: cell-based; details: SC1, concentration giving a 50% inhibition of virus plaque growth, compounds added 2 hours prior to virus, read-out: IC₅₀
Protocol: The ability of the furan ketone derivatives of this invention to act as anti-retroviral agents can be demonstrated by their ability to inhibit the growth and replication of murine leukemia virus, an oncogenic retrovirus, as determined by an in vitro XC plaque assay. This assay was performed according to the method of Rowe et al. (Virology, 1970, 42, 1136-39) as previously described by L. Hsu, et al. (J. Virological Methods, 1980, 1, 167-77) and T. L. Bowlin and M. R. Proffitt (J. Interferon Res., 1983, 3(1), 19-31). Mouse SC-1 cells (fibroblast) (10⁵) were seeded into each well of 6-well cluster plates (Costar #3506) in 4 ml Minimum Essential Medium (MEM) with 10% Fetal Calf Serum (FCS). Following an 18 hour incubation period (37°C), Moloney murine leukemia virus (MoLV) was applied at a predetermined titer to give optimal (i.e. countable) numbers of virus plaques. Compounds were added 2 hours prior to addition of the virus. Three days later the culture medium was removed, the SC-1 cell monolayers were exposed to UV irradiation (1800 ergs), and rat XC cells (10⁶) were seeded into each well in 4 ml MEM. Following an additional 3 day incubation (37°C), these cells were fixed with ethyl alcohol (95%) and stained with 0.3% crystal violet. Plaques were then counted under low magnification. The antiviral activities of various compounds of this invention are tabulated in Table I in terms of the IC₅₀, i,e, the concentration giving a 50% inhibition of virus plaque growth.

HIV1GB8 strain of HIV-1 = assay: anti-HIV activity in T-cells (JM cells): syncytial cell count and p24 antigen after 4 days; assay type: cell-based; details: for SYNCYTIAL COUNT: untreated 29; for P24 ANTIGEN: untreated 801; for inhibition at 15 µg/mL / inhibition at 30 µg/mL: Human immunodeficiency virus 1, T-cell, 96 h, inhibition of syncytial count
Protocol: To further confirm the antiretroviral activity of these compounds, methyl 5-tetradecyloxy-2-furyl ketone and methyl 5-tetradecylthiomethyl-2-furyl ketone were evaluated for activity against HIV. Following overnight pretreatment of T-cells (JM cells) with the HIV1GB8 strain of HIV-1, the test compounds were added to the cell cultures at concentrations of 15 and 30 µg/ml. After 4 days the number of synctial cells in the cell culture and the amount of p24 antigen, also a measure of viral replication, were determined.

SMILES | IC50 [1] [µg/mL] | further results
CCCCCCCCCCCCCCc1ccc(C(C)=O)o1 [Methyl 5-tetradecyl-2-furyl ketone] | 1 to 10 (≈ 3.26 to 32.6 µM) | 
CCCCCCCCCCCCCCOCc1ccc(C(C)=O)o1 [Methyl 5-tetradecyloxymethyl-2-furyl ketone] | 1 to 10 (≈ 2.97 to 29.7 µM) | 
CC(=O)c1ccc(OCCC(C)CCCC(C)CCCC(C)C)o1 (centres unmarked) [Methyl 5-(3,7,11-trimethyldodecyloxy)-2-furyl ketone] | < 1 | 
CCCCCCCCCCCCCCSCc1ccc(C(C)=O)o1 [Methyl 5-tetradecylthiomethyl-2-furyl ketone] | 1 (≈ 2.84 µM) | SYNCYTIAL COUNT (HIV1GB8 strain of HIV-1; 15 µg/ml): 3; P24 ANTIGEN (HIV1GB8 strain of HIV-1; 15 µg/ml): 152 pg X 10³/ml; SYNCYTIAL COUNT (HIV1GB8 strain of HIV-1; 30 µg/ml): 0; inhibition at 15 µg/mL (HIV1GB8 strain of HIV-1; 15 µg/ml): 90%; inhibition at 30 µg/mL (HIV1GB8 strain of HIV-1; 30 µg/ml): 100%
CCCCCCCCCCCCCCOc1ccc(C(=O)CCCCCC)o1 [Hexyl 5-tetradecyloxy-2-furyl ketone] | 5 to 10 (≈ 12.7 to 25.5 µM) | 
CCCCCCCCCCCCCCOc1ccc(C(=O)C(C)(C)C)o1 [t-Butyl 5-tetradecyloxy-2-furyl ketone] | 5 to 10 (≈ 13.7 to 27.4 µM) | 
CCCCCCCCCCCCCCSc1ccc(C(C)=O)o1 [Methyl 5-tetradecylthio-2-furyl ketone] | 1 to 10 (≈ 2.95 to 29.5 µM) | 

The next lines start with results.

IC50 [1] [µg/mL] | SMILES | further results
5 to 10 (≈ 14.9 to 29.7 µM) | CCCCCCCCCCCCCCCOc1ccc(C(C)=O)o1 [Methyl 5-pentadecyloxy-2-furyl ketone] | 
4 (≈ 12.4 µM) | CCCCCCCCCCCCCCOc1ccc(C(C)=O)o1 [Methyl 5-tetradecyloxy-2-furyl ketone] | SYNCYTIAL COUNT (HIV1GB8 strain of HIV-1; 15 µg/ml): 19; P24 ANTIGEN (HIV1GB8 strain of HIV-1; 15 µg/ml): 450 pg X 10³/ml; SYNCYTIAL COUNT (HIV1GB8 strain of HIV-1; 30 µg/ml): 0; inhibition at 15 µg/mL (HIV1GB8 strain of HIV-1; 15 µg/ml): 34%; inhibition at 30 µg/mL (HIV1GB8 strain of HIV-1; 30 µg/ml): 100%
1 to 10 (≈ 3.75 to 37.5 µM) | CCCCCCCCCCOc1ccc(C(C)=O)o1 [Methyl 5-decyloxy-2-furyl ketone] | 
< 1 | CCCCCCCC/C=C\CCCCCCCCOc1ccc(C(C)=O)o1 [Methyl 5-(cis-9-octadecenyl)oxy-2-furyl ketone] | 
1 to 10 (≈ 2.85 to 28.5 µM) | CCCCCCCCCCCCCCCCOc1ccc(C(C)=O)o1 [Methyl 5-hexadecyloxy-2-furyl ketone] | 
1 to 10 (≈ 3.4 to 34 µM) | CCCCCCCCCCCCOc1ccc(C(C)=O)o1 [Methyl 5-dodecyloxy-2-furyl ketone] | 
> 10 | CCCCCCCCCCCCCCCCCCOc1ccc(C(C)=O)o1 [Methyl 5-octadecyloxy-2-furyl ketone] | 
1 to 5 (≈ 2.97 to 14.9 µM) | CCCCCCCCCCCCC(C)COc1ccc(C(C)=O)o1 (centres unmarked) [Methyl 5-(2-methyltetradecyloxy)-2-furyl ketone] | 
5 to 10 (≈ 18 to 35.9 µM) | CCCCCCCCCCCCc1ccc(C(C)=O)o1 [Methyl 5-dodecyl-2-furyl ketone] | 
